Measurements as given in patent US20240270768A1, “A METHOD FOR OBTAINING L-GLUFOSINATE” (UPL LIMITED, priority 2021, published 2024).

What was measured:
[1] = versus other L-glufosinate quinine hydrates (dihydrate, hexahydrate, dodecahydrate)
[2] = Storage stability of L-glufosinate quinine tetrahydrate salt under standard conditions, analysed by HPLC; format: physicochemical
Method: HPLC method: • A) Column—Zorbax SB-C8 (250×4.6 mm i.d., 5 micron) • B) Mobile Phase—0.1% OPA: Acetonitrile (v/v) 40:60 • C) Flow—1.0 ml/min. • D) UV-Wavelength—230 nm • E) Injection volume—5 μl • F) Column temperature 40 °C • G) Run time—10 min
L-glufosinate quinine tetrahydrate salt obtained in example 1 was stored under standard conditions (i.e. room temperature, normal pressure, air atmosphere) for 431 days.

For `C=C[C@H]1CN2CC[C@H]1C[C@H]2[C@H](O)c1ccnc2ccc(OC)cc12.CP(=O)(O)CC[C@H](N)C(=O)O.O.O.O.O` [L-glufosinate quinine tetrahydrate salt], which “Storage stability, thermal stability and hygroscopicity compared to other hydrates” value [1] is on record?
The value was “improved storage stability, thermal stability and non-hygroscopicity as compared to other hydrates”.

What about the “Duration of desirable stability on storage” value ([2]; ambient conditions and air atmosphere) of the same compound?
Its value is “more than 430 days”.

And the “Moisture content after storage” value ([2]; stored 431 days at room temperature, normal pressure, air atmosphere, initial value 12.04% (Example 1))?
Its value is 12.39%.

What about the “Loss on drying after storage” value ([2]; stored 431 days at room temperature, normal pressure, air atmosphere, initial value 12.32% (Example 1)) of the same compound?
Its value is 12.27%.

What about the “L-glufosinate acid content (by HPLC) after storage” value ([2]; stored 431 days at room temperature, normal pressure, air atmosphere, initial value 32.70% (Example 1)) of the same compound?
The value was 33.13%.

What about the “Quinine content (by HPLC) after storage” value ([2]; stored 431 days at room temperature, normal pressure, air atmosphere, initial value 54.34% (Example 1)) of the same compound?
Its value is 53.14%.
